What was measured:
MLKL = biological target: T1, MLKL (Mus musculus, UniProt Q9D2Y4); experiment: streptavidin pull down from lysates, including RIPK1-/- and RIPK3-/- MEF; assay type: cell-based
T1 construct: endogenous, L929sAhFas and MEF cell lysates
T1 sequence (Q9D2Y4 1-472): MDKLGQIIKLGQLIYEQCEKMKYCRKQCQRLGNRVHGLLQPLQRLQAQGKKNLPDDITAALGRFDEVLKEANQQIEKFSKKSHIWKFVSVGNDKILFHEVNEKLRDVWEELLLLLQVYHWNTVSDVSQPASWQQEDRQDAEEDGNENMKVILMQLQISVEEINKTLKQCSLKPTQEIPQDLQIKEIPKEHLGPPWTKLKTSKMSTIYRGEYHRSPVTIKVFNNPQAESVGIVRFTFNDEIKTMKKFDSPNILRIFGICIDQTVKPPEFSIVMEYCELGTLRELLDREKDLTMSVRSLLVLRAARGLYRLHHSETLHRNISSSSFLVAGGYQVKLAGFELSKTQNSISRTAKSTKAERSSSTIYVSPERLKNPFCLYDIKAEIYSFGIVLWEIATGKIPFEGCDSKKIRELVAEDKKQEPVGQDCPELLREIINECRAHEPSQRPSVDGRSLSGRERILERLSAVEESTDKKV

B-Raf = biological target: T2, B-Raf (Mus musculus, UniProt P28028); experiment: streptavidin pull down from cell lysate, immunoblot; assay type: cell-based
T2 construct: gene Braf; endogenous, L929sAhFas cell lysate

RIPK3 = biological target: T3, RIPK3 (Mus musculus, UniProt Q9QZL0); experiment: as above; assay type: cell-based
T3 construct: endogenous, L929sAhFas and MEF cell lysates

RIPK1 = biological target: T4, RIPK1 (Mus musculus, UniProt Q60855); experiment: as above; assay type: cell-based
T4 construct: endogenous, L929sAhFas and MEF cell lysates
T4 sequence (Q60855 1-656): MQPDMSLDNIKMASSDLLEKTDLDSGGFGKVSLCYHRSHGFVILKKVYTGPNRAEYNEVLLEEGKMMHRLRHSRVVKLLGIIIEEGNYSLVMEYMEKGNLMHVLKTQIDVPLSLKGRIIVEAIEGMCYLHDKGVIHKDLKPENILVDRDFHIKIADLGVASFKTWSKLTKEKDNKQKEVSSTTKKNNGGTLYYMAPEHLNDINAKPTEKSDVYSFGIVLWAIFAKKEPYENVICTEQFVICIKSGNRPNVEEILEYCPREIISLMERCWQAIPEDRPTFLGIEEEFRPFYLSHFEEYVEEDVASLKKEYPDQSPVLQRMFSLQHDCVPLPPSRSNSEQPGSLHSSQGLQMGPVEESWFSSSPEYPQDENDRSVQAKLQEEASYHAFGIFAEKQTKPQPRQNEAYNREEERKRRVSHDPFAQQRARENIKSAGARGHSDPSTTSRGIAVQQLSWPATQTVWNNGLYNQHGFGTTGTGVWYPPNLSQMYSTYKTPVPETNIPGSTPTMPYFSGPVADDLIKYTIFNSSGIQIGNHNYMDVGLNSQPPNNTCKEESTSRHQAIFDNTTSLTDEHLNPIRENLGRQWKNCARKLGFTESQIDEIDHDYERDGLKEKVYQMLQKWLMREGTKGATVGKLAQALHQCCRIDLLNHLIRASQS

L929sAhFas = experiment: cells; design: species or system L929sAhFas or MEF; protection from TNF-induced cell death, percentage PI-positive nuclei by high-content imaging; conditions: mTNF; inhibition of induced cell death
Method: Figure 2 Sorafenib inhibits TNF-induced RIPK1-dependent cell death in both murine and human cell lines and rescues AML cells from Smac mimetic-induced necroptosis. […] (c,d) HT-29 and Jurkat FADD−/− cells were pretreated for 1 h with DMSO, Nec-1 or Sorafenib (concentrations as indicated) and stimulated for 6 h with 30 ng/ml hTNF, 1 μM BV6 and 30 μM zVAD (HT-29) or stimulated for 10 h with 100 ng/ml hTNF (Jurkat FADD−/−). (a-d) Data were normalized to DMSO-treated control cells and represent the mean value±S.E.M. of three independent experiments. Toxic concentrations were removed from the analysis. L929sAhFas and MEF cells were stained with Hoechst and PI and percentage PI-positive nuclei was determined using high-content image analysis (BD pathway Bioimager). For HT-29 and Jurkat FADD−/− cells, cell death was determined by PI staining and flow cytometry. […] Cell death in AML cells was determined by PI staining and flow cytometry. Mean and S.D. of three independent experiments performed in triplicate are shown To confirm the inhibition of TNF-induced necroptosis by Sorafenib, we tested a panel of murine (L929sAhFas and MEF) and human cell lines (HT-29, Jurkat FADD^-/-, and two AML cell lines MV4-11 and Molm13). Smac mimetic BV6[34] instead of TAK1i was used as a sensitizer for testing of mouse embryonic fibroblasts (MEF) and human cell lines. […]

MEF = experiment: cells; design: species or system L929sAhFas or MEF; protection from TNF-induced cell death, percentage PI-positive nuclei by high-content imaging; conditions: Mus musculus
Method: (c,d) HT-29 and Jurkat FADD−/− cells were pretreated for 1 h with DMSO, Nec-1 or Sorafenib (concentrations as indicated) and stimulated for 6 h with 30 ng/ml hTNF, 1 μM BV6 and 30 μM zVAD (HT-29) or stimulated for 10 h with 100 ng/ml hTNF (Jurkat FADD−/−). (a-d) Data were normalized to DMSO-treated control cells and represent the mean value±S.E.M. of three independent experiments. Toxic concentrations were removed from the analysis. L929sAhFas and MEF cells were stained with Hoechst and PI and percentage PI-positive nuclei was determined using high-content image analysis (BD pathway Bioimager). For HT-29 and Jurkat FADD−/− cells, cell death was determined by PI staining and flow cytometry. […] Cell death in AML cells was determined by PI staining and flow cytometry. […] Smac mimetic BV6[34] instead of TAK1i was used as a sensitizer for testing of mouse embryonic fibroblasts (MEF) and human cell lines. […] Since Sorafenib is used to treat AML,[27] we also included two AML cell lines to investigate whether it alters the sensitivity of these cells to necroptotic stimuli (BV6 in the presence of zVAD-fmk).[34]

MV4-11 = experiment: cells; design: species or system Jurkat FADD-/-, HT-29, MV4-11 or Molm13; protection from induced necroptosis, cell death by PI staining and flow cytometry; conditions: Homo sapiens, BV6 + zVAD, inhibition of induced cell death
Method: (§1) Figure 2 Sorafenib inhibits TNF-induced RIPK1-dependent cell death in both murine and human cell lines and rescues AML cells from Smac mimetic-induced necroptosis. […] (c,d) HT-29 and Jurkat FADD−/− cells were pretreated for 1 h with DMSO, Nec-1 or Sorafenib (concentrations as indicated) and stimulated for 6 h with 30 ng/ml hTNF, 1 μM BV6 and 30 μM zVAD (HT-29) or stimulated for 10 h with 100 ng/ml hTNF (Jurkat FADD−/−). (a-d) Data were normalized to DMSO-treated control cells and represent the mean value±S.E.M. of three independent experiments. Toxic concentrations were removed from the analysis. L929sAhFas and MEF cells were stained with Hoechst and PI and percentage PI-positive nuclei was determined using high-content image analysis (BD pathway Bioimager). For HT-29 and Jurkat FADD−/− cells, cell death was determined by PI staining and flow cytometry. […] Cell death in AML cells was determined by PI staining and flow cytometry. Mean and S.D. of three independent experiments performed in triplicate are shown Supplementary materials and methods Immunoblotting. After treatments, cells were washed twice with PBS and lysed with Laemmli buffer (2x) directly or with NP-40 lysis buffer (150 mM NaCl, 1% NP-40, 10% glycerol, 10 mM Tris-HCl pH 8) supplemented with EDTA-free protease inhibitor cocktail tablets (Roche Diagnostics, Basel, Switzerland, #11873580001) and phosphatase inhibitor cocktail tablets (Roche Diagnostics, #04906837001). After lysis with NP-40 lysis buffer, lysates were kept 10 minutes on ice and centrifugated in a microcentrifuge (10 min, 13.000 rpm, 4°C). Supernatant was used for SDS-PAGE and immunoblotting. FACS analysis. FACS analysis was used to measure dying HT-29, Jurkat FADD-/- and AML cells. Treated HT-29 cells were harvested, washed with PBS and incubated with Annexin V binding buffer (BD Biosciences, 556454) containing 7-AAD and Annexin V-FITC for 15 min according to the manufacturer’s protocol. FACSCalibur^TM Flow Cytometer (BD Biosciences) and CellQuest Pro software were used to perform experiments and analyze data respectively.

Molm13 = experiment: cells; design: species or system Jurkat FADD-/-, HT-29, MV4-11 or Molm13; protection from induced necroptosis, cell death by PI staining and flow cytometry; conditions: Homo sapiens, MOLM-13; BV6 + zVAD; inhibition of induced cell death
Method: as §1

T2 sequence (P28028 2-751): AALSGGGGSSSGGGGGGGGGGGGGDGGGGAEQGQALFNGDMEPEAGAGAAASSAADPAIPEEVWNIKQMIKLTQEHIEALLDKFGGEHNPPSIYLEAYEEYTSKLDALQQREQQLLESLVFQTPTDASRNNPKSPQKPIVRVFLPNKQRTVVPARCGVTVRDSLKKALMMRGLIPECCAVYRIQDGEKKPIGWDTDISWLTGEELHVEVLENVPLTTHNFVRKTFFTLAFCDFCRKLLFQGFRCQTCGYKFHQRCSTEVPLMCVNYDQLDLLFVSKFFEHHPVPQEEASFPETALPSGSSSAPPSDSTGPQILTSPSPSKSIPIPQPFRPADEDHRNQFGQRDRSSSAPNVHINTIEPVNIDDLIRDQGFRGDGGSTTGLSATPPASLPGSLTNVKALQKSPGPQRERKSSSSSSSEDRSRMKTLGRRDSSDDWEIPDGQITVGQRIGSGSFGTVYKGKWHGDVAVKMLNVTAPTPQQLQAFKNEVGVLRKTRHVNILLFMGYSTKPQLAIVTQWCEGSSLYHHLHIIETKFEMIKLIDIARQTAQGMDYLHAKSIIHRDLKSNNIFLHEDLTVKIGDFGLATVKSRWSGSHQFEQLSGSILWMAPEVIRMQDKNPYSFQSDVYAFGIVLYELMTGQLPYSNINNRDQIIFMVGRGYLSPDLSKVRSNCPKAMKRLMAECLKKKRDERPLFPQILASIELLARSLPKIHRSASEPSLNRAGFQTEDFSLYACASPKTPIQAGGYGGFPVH
T3 sequence (Q9QZL0 whole entry): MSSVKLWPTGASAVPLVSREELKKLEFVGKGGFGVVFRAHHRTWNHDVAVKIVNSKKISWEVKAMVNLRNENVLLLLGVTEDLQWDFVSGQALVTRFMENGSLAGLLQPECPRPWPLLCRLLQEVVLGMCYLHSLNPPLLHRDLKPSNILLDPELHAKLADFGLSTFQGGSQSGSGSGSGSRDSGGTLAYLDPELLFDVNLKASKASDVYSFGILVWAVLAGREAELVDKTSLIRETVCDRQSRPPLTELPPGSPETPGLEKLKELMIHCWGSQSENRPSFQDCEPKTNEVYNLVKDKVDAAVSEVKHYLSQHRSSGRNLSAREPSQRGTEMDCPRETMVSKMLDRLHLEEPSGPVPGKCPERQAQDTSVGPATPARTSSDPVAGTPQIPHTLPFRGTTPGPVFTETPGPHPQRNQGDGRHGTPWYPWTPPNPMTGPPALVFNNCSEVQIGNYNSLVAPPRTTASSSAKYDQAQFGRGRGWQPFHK

Row | Structure (SMILES) | streptavidin pull down from lysates, including RIPK1-/- and RIPK3-/- MEF (MLKL) | streptavidin pull down from cell lysate, immunoblot (B-Raf) | streptavidin pull down from cell lysate, immunoblot (RIPK3) | streptavidin pull down from cell lysate, immunoblot (RIPK1) | IC50 (L929sAhFas) [nM] | IC50 (MEF; mTNF + BV6 + zVAD, inhibition of induced cell death) [nM] | IC50 (MEF; mTNF + BV6, inhibition of induced cell death) [nM] | IC50 (MV4-11) [nM] | IC50 (Molm13) [nM]
1 | O=C(CCCC[C@@H]1SC[C@@H]2NC(=O)N[C@@H]21)NCCOCCOCCNC(=O)c1cc(Oc2ccc(NC(=O)Nc3ccc(Cl)c(C(F)(F)F)c3)cc2)ccn1 [compound 10, biotinylated Sorafenib] | Sorafenib is likely to bind independently to RIPK1, RIPK3 or MLKL (Figure 4c), even in the absence of a necroptotic stimulus | We show a dose-dependent pull down of RIPK1, RIPK3, MLKL and B-Raf | We show a dose-dependent pull down of RIPK1, RIPK3, MLKL and B-Raf | We show a dose-dependent pull down of RIPK1, RIPK3, MLKL and B-Raf |  |  |  |  | 
2 | CN1C(=O)NC(Cc2c[nH]c3c(Cl)cccc23)C1=O (stereo not drawn) [Nec-1s] |  |  |  |  | 240 ± 120 | 630 ± 250 | 380 ± 50 | 150 ± 10 | 280 ± 170

— PMC5520944 (Cell Death & Disease, 2017)
